# Like-named read-outs stand apart in the source and are kept apart here.
# Experiments:
# [1] = test system: giant salvinia (Salvinia molesta); test: Spray of salviniside II and other isolates/fractions on giant salvinia plants; assay type: in vivo; design: key to activity class against giant salvinia: inactive: not able to inhibit the growth of giant salvinia at all; active: able to fully inhibit the growth of giant salvinia at high concentrations; very active: able to fully inhibit the growth of giant salvinia at low concentrations
# Experimental: The combined fractions were loaded on a pre-equilibrated open ODS column (60×600 mm). The ODS column was eluted successively with 30%, 55%, 75% and 100% MeOH to yield four fractions F1, F2, F3, and F4, respectively. […] NMR experiments were performed on a JEOL ECS-400 and a Bruker Avance 700 NMR instrument. NMR data were reported as δ (ppm) values and referenced to the solvent used. HRESIMS were acquired on an electrospray instrument (MDS Sciex Pulsar Qstar, Ontario, Canada). Octadecyl-functionalized silica gel, silica gel, Sephadex LH-20, and TLC plates were purchased from Aldrich Chemical Co. HPLC analysis was performed on a Hewlett Packard Series 1100 with a HP 1100 diode array detector using a Hypersil ODS column (150×4.6 mm, 5 μM, Supelco; flow rate, 1 mL/min; MeOH/H2O (v/v) linear gradient, 2:98-98:2 in 35 min). Preparative HPLC was performed with an Acuflow Series III pump connected with an Acutect 500 UV/VIS detector using an Econosil ODS column (250×22 mm, 10 μM, All tech). The total 27 healthy and untreated living plants of giant salvinia (in secondary growth stage, approximately 10 g in fresh weight each) were cultured and tested in plastic containers (14×15 cm, 0.68 L) in the NCPC Lab at RT. The […] treatments were as follows. Controls: 9 plants with three in each container (3 replications) were cultured with 150 mL of tap water; 0.01% salviniside II treatment: 9 plants with three in each container (3 replications) were sprayed with 150 mL 0.01% of salviniside II dissolved in tap water; and 0.1% salviniside II treatment: 9 plants with three in each container (3 replications) were sprayed with 150 mL 0.1% of salviniside II dissolved in tap water. […] By the end of two weeks, new growth biomass of plants in each treatment was measured. The biomass of new growth was a primary factor to measure the inhibition of each treatment on the target plant.
# L. leucocephala = conditions: 100 mg/L; cited from earlier work
# [2] = test system: red imported fire ant (Solenopsis invicta Buren) workers; test: Contact toxicity assay, topical spray on fire ant workers, 7 h; assay type: in vivo; conditions: PROBIT
# Experimental: (§1) Preparation of the fire ant extracts: (1) Acetone extract: 97 g (in fresh weight) of the red imported fire ant workers were extracted two times with acetone at RT (each 250 mL, 24 h). […] (2) Ethanol extract: 110 g (in fresh weight) of the whole worker bodies of the red imported fire ant (Solenopsis invicta Buren) (family Furmicidae) were extracted two times with 95% EtOH at RT (each 250 mL, 24 h). […] Both extracts were dissolved in water and then prepared as experimental solutions at the concentration of 0.1%, 1%, 5%, and 10%, respectively. […] The mixture was put under ultrasound for 30 min extraction. The fire ants were then removed and the extract was dried with anhydrous magnesium sulfate. 500 μL of the extract was transferred to NMR tube for detection. ^1H-NMR experiments were performed on a JEOL ECS 400 spectrometer, with spectroscopic data referenced to the solvent used. […] The ants in each beaker were topically sprayed with a total 1 mL of 0.1%, 1%, 5%, or 10% solutions of either acetone or ethanol extract, respectively. The control group was sprayed with 1 mL pure water. The beakers in all treatments were covered by cloth to prevent the escape of the fire ants. The surviving number of the fire ants in each treatment was counted by 1 h interval for 7 h. […] The ants in each beaker were topically sprayed with a total 1 mL of 0.1%, 1%, or 5% solutions of either formic or acetic acids, respectively. The control group was sprayed with 1 mL pure water. The beakers in all treatments were covered by cloth to prevent the escape of fire ants. The surviving number of the fire ants in each treatment was counted by 1 h interval for 7 h. […] The surviving number of the fire ants in each treatment was counted by 15 min interval for 90 min. […] The surviving number of the fire ants in each treatment was counted by 15 min interval for 90 min. […] The surviving number of the fire ants in each treatment was counted by 1 h interval for 7 h. […] The surviving number of the fire ants in each treatment was counted by 1 h interval for 2 h. […]
# [3] = test system: giant salvinia (Salvinia molesta)
# Experimental: Plant growth and survival status were documented and photographed hourly for the first 5 h and then daily for seven days after the treatment.
# [4] = test system: red imported fire ant (Solenopsis invicta Buren) workers; conditions: for average mortality: 90 min
# Experimental: as §1
# [5] = test system: subterranean termite (Reticulitermes flavipes (Kollar)); conditions: for termite kill: during the first hour
# Experimental: The mixture was put under ultrasound for 30 min extraction. The termites were then removed and the extract was dried with anhydrous magnesium sulfate. 500 μL of the extract was transferred to NMR tube for detection. ^1H-NMR experiments were performed on a JEOL ECS 400 spectrometer, with spectroscopic data referenced to the solvent used. […] The control group was sprayed with 1 mL pure water. The beakers in all treatments were covered by cloth to prevent the escape of termites. The surviving number of the termites in each treatment was counted by 1 h interval for 7 h.
# [6] = test system: seedlings of rice cultivars; conditions: vs four species of Brassicaceae, Asteraceae, Fabaceae and five weed grass species of Poaceae; cited from earlier work
compound,measurement,setting,value
"4″,6″-O-[3,5-dicarbonyl-8-hydroxy-2-(4′,5′-dihydroxy-phenyl)-1-benzofuran-2-yl]-D-glucopyranose [salviniside II]",new growth thereafter,"[1]; 0.1%, eight months of observation",no new growth
same,growth of giant salvinia,"[1]; 0.1%, within two weeks, lab at RT",totally inhibited
same,activity class against giant salvinia,[1]; isolates and subfractions of F3,active
NC(Cn1ccc(=O)c(O)c1)C(=O)O (stereo not shown) [Minosine],inhibition on the producing plants,L. leucocephala,did not show any inhibition
CC(=O)O [acetic acid],7 h LD50,[2],6.42%
same,7 h LD90,[2],9.96%
O=CO [formic acid],growth inhibition,[3]; 0.01% concentration,still effectively inhibited the growth of giant salvinia
same,plants killed,"[3]; 0.05% concentration, within 24 h",approximately 50%
same,7 h LD90,[2],5.09%
same,average mortality,[4]; 2.5%,more than 70%
same,average mortality,[4]; 5%,100%
same,2 h LD90,"[4]; fumigation, PROBIT",0.9%
same,impact on the termites,[5]; 0.1%,no impact
same,termites killed,"[5]; 1%, 7 h",more than 40%
same,termite kill,[5]; 5%,killed all termites
same,termite kill,[5]; 10%,killed all termites
same,7 h LD90,[5]; contact toxicity,9.08%
C=C[C@]1(C)CC[C@@H]2C(=C[C@H]3OC(=O)[C@@]4(C)C(=O)CC[C@@]2(C)[C@@H]34)C1 [momilactone A],effective concentration to inhibit rice seedlings relative to that for other species,[6],100 times
C=C[C@]1(C)CC[C@@H]2C(=C[C@H]3OC(=O)[C@]4(C)[C@H]3[C@]23CC[C@@]4(O)OC3)C1 [momilactone B],effective concentration to inhibit rice seedlings relative to that for other species,[6],333 times

# Reference: patent publication US9918480B2, “Compositions and methods to selectively control invasive species” (STEPHEN F. AUSTIN STATE UNIVERSITY, priority 2013, dated 2018)
